Where a name gives a salt, the structure may show the parent alone. Read-outs that look alike come from different tables or passages of the source.

For data set [1] the following is noted: rcm bond.
The target of data set [2] is T1, EZH2 within the PRC2 complex (Homo sapiens, UniProt Q15910).
T1 construct: FLAG; made in house; host or cells: Sf9 cells
Briefly: Assay Protocol 1: EZH2 methyltransferase scintillation proximity assay, mononucleosome substrate. Type of data set: biochemical. Particulars: Assay Protocol 1; SPA, 3H-SAM, Histone H3 of mononucleosome purified from HeLa cells; 5-member PRC2 complex; read-out: EZH2 IC50. How it is done:
Compounds contained herein were evaluated for their ability to inhibit the methyltransferase activity of EZH2 within the PRC2 complex. […] Mononucleosomes were captured on SPA beads and the resulting signal is read on a ViewLux plate reader. • 1. Prepare 10 mM stock of compounds from solid in 100% DMSO. • 2. […] Dispense 100 nL of compound from the dilution plate into reaction plates (Grenier Bio-One, 384-well, Cat#784075). Prepare the following solutions: • 1. 50 mM Tris-HCl, pH 8: Per 1 L of base buffer, combine 1 M Tris-HCl, pH 8 (50 mL) and distilled water (950 mL). • 2. 1× Assay Buffer: […] SPA Bead Suspension: […] Per 10 mL of 2× Substrate Solution, combine 1× Assay Buffer (9728.55 uL), 800 ug/mL mononucleosomes (125 uL), 1 mM cold SAM (4 uL), and 7.02 uM 3H-SAM (142.45 uL; 0.55 mCi/mL) to provide a final concentration of 5 ug/mL nucleosomes, 0.2 uM cold SAM, and 0.05 uM 3H-SAM. • 6. 2.67× Quench/Bead Mixture: Per 10 mL of 2.67× Quench/Bead Mixture, combine ddH2O (9358 uL), 10 mM cold SAM (267 uL), 40 mg/mL Bead Suspension (375 uL) to provide a final concentration of 100 uM cold SAM and 0.5 mg/mL SPA beads. • 1. Dispense 100 nL/well of 100× Compound to test wells (as noted above). • 2. […] • 1. Dispense 5 uL/well of 1× Assay Buffer to column 18 (low control reactions). • 2. Dispense 5 uL/well of 2× Enzyme Solution to columns 1-17, 19-24. • 3. Spin assay plates for ˜1 minute at 500 rpm. • 4. Stack the assay plates, covering the top plate. • 5. Incubate the compound/DMSO with the enzyme for 30 minutes at room temperature. • 6. Dispense 5 uL/well of 2× Substrate Solution to columns 1-24. • 7. Spin assay plates for ˜1 minute at 500 rpm. • 8. Stack the assay plates, covering the top plate. • 9. Incubate the assay plates at room temperature for 1 hour. • 1. Dispense 5 uL/well of the 3× Quench/Bead Mixture to columns 1-24. • 2. Seal the top of each assay plate with adhesive TopSeal. • 3. Spin assay plates for ˜1 minute at 500 rpm. • 4. […] • 1. Read the assay plates on the Viewlux Plate Reader utilizing the 613 nm emission filter with a 300 s read time. Reagent addition can be done manually or with automated liquid handler. The final DMSO concentration in this assay is 1%. The positive control is in column 6; negative control is in column 18. Final starting concentration of compounds is 100 μM. Percent inhibition was calculated relative to the DMSO control for each compound concentration and the resulting values were fit using standard IC50 fitting parameters within the ABASE data fitting software package.

Data set [3] addresses T1, EZH2 within the PRC2 complex. The experiment in a line: Assay Protocol 2: EZH2 methyltransferase scintillation proximity assay, biotinylated histone H3 peptide substrate. As to conditions: SPA, 3H-SAM, biotinylated unmethylated histone H3K27 peptide substrate, 5-member PRC2 complex. Type of data set: biochemical. The essentials:
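PRC2-complexed EZH2 was run in 50 mM Tris-HCl pH 8, 2 mM MgCl2, 4 mM DTT and 0.001% Tween-20. It was added to a 2× mix of 10 uM biotinylated H3K27 peptide, 0.15 uM 3H-SAM and 2.85 uM cold SAM with streptavidin SPA beads. After 60 min at room temperature and a cold-SAM quench, IC50 was fitted from percent inhibition versus DMSO.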
A general note: Scintillation proximity formats need no separation of bound from free tracer.

The mark [4] stands for this setting: from C=CCCc1cc(C)nc(OC)c1CNC(=O)c1ccnc(Cl)c1CC=C, 12-membered ring, Grubbs II (10 mol%), DCM, 10.6 mM, 16.0 h.

T1 sequence (Q15910 whole entry): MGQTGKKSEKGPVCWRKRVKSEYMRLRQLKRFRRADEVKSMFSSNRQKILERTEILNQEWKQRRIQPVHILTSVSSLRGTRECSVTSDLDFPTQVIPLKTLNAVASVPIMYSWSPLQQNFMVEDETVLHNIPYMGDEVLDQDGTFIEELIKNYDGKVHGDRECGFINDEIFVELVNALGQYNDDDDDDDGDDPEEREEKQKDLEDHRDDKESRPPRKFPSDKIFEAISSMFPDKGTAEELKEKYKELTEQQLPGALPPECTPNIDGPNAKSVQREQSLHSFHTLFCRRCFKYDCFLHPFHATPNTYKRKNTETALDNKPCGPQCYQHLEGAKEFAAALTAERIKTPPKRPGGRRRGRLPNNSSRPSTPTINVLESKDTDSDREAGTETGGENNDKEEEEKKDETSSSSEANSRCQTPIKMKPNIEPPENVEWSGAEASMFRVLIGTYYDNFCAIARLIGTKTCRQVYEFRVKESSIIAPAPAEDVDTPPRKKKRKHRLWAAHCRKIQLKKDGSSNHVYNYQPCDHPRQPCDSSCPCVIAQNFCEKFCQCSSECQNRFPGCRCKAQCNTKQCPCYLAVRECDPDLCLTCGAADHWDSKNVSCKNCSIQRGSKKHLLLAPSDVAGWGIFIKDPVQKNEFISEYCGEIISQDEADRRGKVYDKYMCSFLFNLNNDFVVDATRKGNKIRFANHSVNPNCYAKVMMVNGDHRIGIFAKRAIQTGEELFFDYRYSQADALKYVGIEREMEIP
T1 sequence (O75530 whole entry partner): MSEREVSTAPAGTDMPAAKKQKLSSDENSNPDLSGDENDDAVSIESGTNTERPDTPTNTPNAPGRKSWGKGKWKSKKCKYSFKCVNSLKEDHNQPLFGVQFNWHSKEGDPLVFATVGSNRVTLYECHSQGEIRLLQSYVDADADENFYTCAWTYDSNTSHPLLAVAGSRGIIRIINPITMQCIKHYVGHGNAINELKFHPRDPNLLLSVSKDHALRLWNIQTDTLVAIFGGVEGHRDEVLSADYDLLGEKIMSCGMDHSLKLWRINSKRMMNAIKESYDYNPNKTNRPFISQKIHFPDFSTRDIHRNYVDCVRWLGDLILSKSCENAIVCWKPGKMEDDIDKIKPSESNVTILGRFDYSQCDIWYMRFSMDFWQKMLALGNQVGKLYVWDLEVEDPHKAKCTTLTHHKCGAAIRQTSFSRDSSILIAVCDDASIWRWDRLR
T1 sequence (Q15022 whole entry partner): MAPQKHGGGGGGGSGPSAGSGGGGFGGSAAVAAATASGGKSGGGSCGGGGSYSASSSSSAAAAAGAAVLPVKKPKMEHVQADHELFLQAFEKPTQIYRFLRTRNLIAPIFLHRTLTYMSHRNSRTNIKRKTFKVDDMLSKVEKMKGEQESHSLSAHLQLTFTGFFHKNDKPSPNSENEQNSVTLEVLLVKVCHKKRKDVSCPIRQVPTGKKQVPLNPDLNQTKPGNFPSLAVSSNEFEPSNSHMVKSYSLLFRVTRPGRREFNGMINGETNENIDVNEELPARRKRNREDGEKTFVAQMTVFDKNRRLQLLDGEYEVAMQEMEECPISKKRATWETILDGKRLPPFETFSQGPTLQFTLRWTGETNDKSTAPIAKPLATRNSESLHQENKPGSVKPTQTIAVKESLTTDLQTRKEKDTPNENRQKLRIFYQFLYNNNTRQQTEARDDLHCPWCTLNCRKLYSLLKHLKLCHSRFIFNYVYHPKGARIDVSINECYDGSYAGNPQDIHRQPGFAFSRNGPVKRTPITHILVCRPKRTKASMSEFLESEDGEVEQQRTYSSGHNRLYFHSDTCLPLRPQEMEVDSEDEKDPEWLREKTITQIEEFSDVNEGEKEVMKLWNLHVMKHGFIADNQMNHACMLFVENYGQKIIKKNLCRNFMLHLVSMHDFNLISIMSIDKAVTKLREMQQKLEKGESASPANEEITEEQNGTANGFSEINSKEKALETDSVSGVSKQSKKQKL
T1 sequence (Q09028 whole entry partner): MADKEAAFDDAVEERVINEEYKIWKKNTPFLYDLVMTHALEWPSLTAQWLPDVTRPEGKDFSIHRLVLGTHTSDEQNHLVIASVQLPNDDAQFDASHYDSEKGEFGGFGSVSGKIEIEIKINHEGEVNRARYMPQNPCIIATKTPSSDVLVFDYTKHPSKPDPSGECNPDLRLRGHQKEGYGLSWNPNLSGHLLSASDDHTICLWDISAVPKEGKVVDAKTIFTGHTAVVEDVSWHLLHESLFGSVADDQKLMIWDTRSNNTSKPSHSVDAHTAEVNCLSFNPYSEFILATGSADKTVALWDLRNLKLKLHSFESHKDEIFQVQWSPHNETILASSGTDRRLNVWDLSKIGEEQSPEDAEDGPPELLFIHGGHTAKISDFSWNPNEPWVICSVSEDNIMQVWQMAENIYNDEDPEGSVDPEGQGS
T1 sequence (Q6ZN18 whole entry partner): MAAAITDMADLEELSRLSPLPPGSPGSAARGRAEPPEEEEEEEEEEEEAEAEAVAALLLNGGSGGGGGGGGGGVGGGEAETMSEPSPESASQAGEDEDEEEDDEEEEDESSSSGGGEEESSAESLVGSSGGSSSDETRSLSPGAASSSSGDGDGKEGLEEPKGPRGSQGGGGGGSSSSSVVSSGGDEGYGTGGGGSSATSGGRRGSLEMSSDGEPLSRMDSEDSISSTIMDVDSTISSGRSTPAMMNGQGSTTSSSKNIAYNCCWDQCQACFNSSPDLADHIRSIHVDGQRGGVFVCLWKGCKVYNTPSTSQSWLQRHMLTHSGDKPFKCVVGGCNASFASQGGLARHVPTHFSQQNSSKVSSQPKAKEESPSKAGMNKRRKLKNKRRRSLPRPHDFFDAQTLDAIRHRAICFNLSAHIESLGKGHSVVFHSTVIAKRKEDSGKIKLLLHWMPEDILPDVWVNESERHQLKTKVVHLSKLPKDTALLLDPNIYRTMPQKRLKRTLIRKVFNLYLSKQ

In turn, `COc1nc(C)cc2c1CNC(=O)c1ccnc(Cl)c1C/C=C/CC2` came in with a ring closure, yield after HPLC in data set [1] (setting [4]) of 37.3%. On to `CCN(c1cccc2c1C/C=C/CCc1cc(C)nc(OC)c1CNC2=O)C1CCC(F)(F)CC1`, for which the ring closure, yield after HPLC in data set [1] (from C=CCCc1cc(C)nc(OC)c1CNC(=O)c1cccc(N(CC)C2CCC(F)(F)CC2)c1CC=C, 12-membered ring, Grubbs II (15 mol%), DCM, 32.1 mM, 25.0 °C, 16.0 h) amounted to 62%. Usually IC50 stands for the point on the concentration scale where inhibition reaches its midpoint. For `CCN(c1cccc2c1C/C=C\CNCc1cc(C)[nH]c(=O)c1CNC2=O)C1CCOCC1` [Example 39, (Z)-11-(ethyl(tetrahydro-2H-pyran-4-yl)amino)-3-methyl-5,6,7,10,16,17-hexahydro-1H-benzo[h]pyrido[4,3-c][1,6]diazacyclotridecine-1,15(2H)-dione], the IC50 in data set [2] turned out to be 1260 nM; in data set [3], 2000 nM. As to `CCN(c1cccc2c1C/C=C/CCc1cc(C)[nH]c(=O)c1CNC2=O)C1CCOCC1` [Example 6, (E)-10-(ethyl(tetrahydro-2H-pyran-4-yl)amino)-3-methyl-5,6,15,16-tetrahydrobenzo[c]pyrido[4,3-j][1]azacyclododecine-1,14(2H,9H)-dione hydrochloride, 0.10 1,4-dioxane solvate], the results for the IC50 in data set [2] and in data set [3] were 100 nM and 158 nM, respectively. `CCN(c1cccc2c1C/C=C\CCc1cc(C)nc(OC)c1CNC2=O)C1CCOCC1` yielded a ring closure, yield after HPLC in data set [1] (from C=CCCc1cc(C)nc(OC)c1CNC(=O)c1cccc(N(CC)C2CCOCC2)c1CC=C, 12-membered ring, Grubbs II (2 x 20 mol%), DCM, 25.3 mM, 25.0 °C, 36.0 h) of 23%. Consider `CCN(c1cccc2c1C/C=C/CCCCc1cc(C)[nH]c(=O)c1CNC2=O)C1CCOCC1` [Example 14, (E)-12-(ethyl(tetrahydro-2H-pyran-4-yl)amino)-3-methyl-5,6,7,8,17,18-hexahydrobenzo[c]pyrido[4,3-l][1]azacyclotetradecine-1,16(2H,11H)-dione hydrochloride], for which the IC50 in data set [2] is 50 nM; in data set [3], 158 nM. For the molecule `CCN(c1cccc2c1C/C=C/CCc1cc(C)[nH]c(=O)c1CNC2=O)C1CCN(C(C)C)CC1` [Example 32, (E)-10-(ethyl(1-isopropylpiperidin-4-yl)amino)-3-methyl-5,6,15,16-tetrahydrobenzo[c]pyrido[4,3-j][1]azacyclododecine-1,14(2H,9H)-dione], the IC50 in data set [2] is 50 nM; in data set [3], 158 nM. `COc1nc(C)cc2c1CNC(=O)c1ccnc(Cl)c1C/C=C\CC2` came in with a ring closure, yield after HPLC in data set [1] (setting [4]) of 18.3%. `CCN(c1cc(Cl)cc2c1C/C=C/CCc1cc(C)[nH]c(=O)c1CNC2=O)C1CCOCC1` [Example 17, (E)-12-chloro-10-(ethyl(tetrahydro-2H-pyran-4-yl)amino)-3-methyl-5,6,15,16-tetrahydrobenzo[c]pyrido[4,3-j][1]azacyclododecine-1,14(2H,9H)-dione]: the IC50 in data set [2] amounted to 32 nM; in data set [3] it was 126 nM. In the case of `CCN(c1cccc2c1C/C=C/CCc1cc(C)[nH]c(=O)c1CNC2=O)C1CCN(C)CC1` [Example 33, (E)-10-(ethyl(1-methylpiperidin-4-yl)amino)-3-methyl-5,6,15,16-tetrahydrobenzo[c]pyrido[4,3-j][1]azacyclododecine-1,14(2H,9H)-dione], the IC50 was 40 nM in data set [2] and 200 nM in data set [3]. `CCN(c1cccc2c1C/C=C/CCc1cc(C)[nH]c(=O)c1CNC2=O)[C@H]1CC[C@H](N(C)C)CC1` [Example 37, (E)-10-((trans-4-(dimethylamino)cyclohexyl)(ethyl)amino)-3-methyl-5,6,15,16-tetrahydrobenzo[c]pyrido[4,3-j][1]azacyclododecine-1,14(2H,9H)-dione]: the results for the IC50 in data set [2] and in data set [3] were 50 nM and 126 nM, respectively. Consider `CCN(c1cccc2c1C/C=C\Cc1cc(C)nc(OC)c1CNC2=O)[C@H]1CC[C@H](NC(=O)OC(C)(C)C)CC1`, for which, in data set [1] (from C=CCCc1cc(C)nc(OC)c1CNC(=O)c1cccc(N(CC)[C@H]2CC[C@H](NC(=O)OC(C)(C)C)CC2)c1CC=C, 11-membered ring, Hoveyda-Grubbs (17.5 mol%), DCE, 16.0 mM, 50.0 °C), the ring closure, yield after HPLC came out at 13.7%. Take `Cc1cc2c(c(=O)[nH]1)CNC(=O)c1cc(Cl)cc(OC(C)C)c1C/C=C/CC2` [Example 18, (E)-12-chloro-10-isopropoxy-3-methyl-5,6,15,16-tetrahydrobenzo[c]pyrido[4,3-j][1]azacyclododecine-1,14(2H,9H)-dione]: the values for the IC50 in data set [2] and in data set [3] were 100 nM and 316 nM, respectively. With `CCN(c1cccc2c1C/C=C/CCc1cc(C)[nH]c(=O)c1CNC2=O)C1CCN(CCO)CC1` [Example 35, (E)-10-(ethyl(1-(2-hydroxyethyl)piperidin-4-yl)amino)-3-methyl-5,6,15,16-tetrahydrobenzo[c]pyrido[4,3-j][1]azacyclododecine-1,14(2H,9H)-dione], the IC50 in data set [2] is 40 nM; in data set [3], 200 nM. Regarding `CCN(c1cccc2c1CC=CCc1cc(C)[nH]c(=O)c1CNC2=O)C1CCNCC1` [Example 54, 9-(ethyl(piperidin-4-yl)amino)-3-methyl-5,8,14,15-tetrahydro-1H-benzo[c]pyrido[4,3-i][1]azacycloundecine-1,13(2H)-dione], the IC50 was 3980 nM in data set [2] and 10000 nM in data set [3]. In the case of `Cc1cc2c(c(=O)[nH]1)CNC(=O)c1cc(Cl)cc(O[C@H]3CC[C@H](N(C)C)CC3)c1C/C=C/CCC2` [Example 8, (E)-13-chloro-11-((trans-4-(dimethylamino)cyclohexyl)oxy)-3-methyl-5,6,7,10,16,17-hexahydro-1H-benzo[c]pyrido[4,3-k][1]azacyclotridecine-1,15(2H)-dione], the IC50 in data set [2] turned out to be 63 nM; in data set [3] it was 251 nM.

Turning to `CCN(c1cccc2c1C/C=C\CCc1cc(C)[nH]c(=O)c1CNC2=O)C1CCNCC1` [Example 52, (Z)-10-(ethyl(piperidin-4-yl)amino)-3-methyl-5,6,15,16-tetrahydrobenzo[c]pyrido[4,3-j][1]azacyclododecine-1,14(2H,9H)-dione], the values for the IC50 in data set [2] and in data set [3] were 631 nM and 2000 nM, respectively. For the molecule `CCN(c1cccc2c1C/C=C/CCc1cc(C)[nH]c(=O)c1CNC2=O)C1CCN(C(CO)CO)CC1` [Example 51, (E)-10-((1-(1,3-dihydroxypropan-2-yl)piperidin-4-yl)(ethyl)amino)-3-methyl-5,6,15,16-tetrahydrobenzo[c]pyrido[4,3-j][1]azacyclododecine-1,14(2H,9H)-dione], the results for the IC50 in data set [2] and in data set [3] were 200 nM and 398 nM, respectively. As to “(E)-11-(ethyl(1-isopropylpiperidin-4-yl)amino)-3-methyl-5,6,7,10,16,17-hexahydro-1H-benzo[c]pyrido[4,3-k][1]azacyclotridecine-1,15(2H)-dione [Example 42]”, the IC50 in data set [2] came to 20 nM; in data set [3], 158 nM. With `CCN(c1cccc2c1C/C=C/CCc1cc(C)[nH]c(=O)c1CNC2=O)C1CCC(F)(F)CC1` [Example 30, (E)-10-((4,4-difluorocyclohexyl)(ethyl)amino)-3-methyl-5,6,15,16-tetrahydrobenzo[c]pyrido[4,3-j][1]azacyclododecine-1,14(2H,9H)-dione], the IC50 in data set [2] amounted to 16 nM; in data set [3], 79 nM.

For the molecule `Cc1cc2c(c(=O)[nH]1)CNC(=O)c1cc(Cl)cc(O[C@H]3CC[C@H](N(C)C)CC3)c1C/C=C/CC2` [Example 2, (E)-12-chloro-10-((trans-4-(dimethylamino)cyclohexyl)oxy)-3-methyl-5,6,15,16-tetrahydrobenzo[c]pyrido[4,3-j][1]azacyclododecine-1,14(2H,9H)-dione], the results for the IC50 in data set [2] and in data set [3] were 25 nM and 126 nM, respectively.
